The numbers were not newly measured in article PMC12333940, “A prometabolite strategy inhibits cardiometabolic disease in an ApoE^–/– murine model of atherosclerosis” (JCI Insight, 2025), which cites them from elsewhere.

The series relates to bone marrow–derived dendritic cells (BMDCs). More on the design: method as in PMID 38561491, PMID 27897220. The note with it: BMDCs ref 28, 40; cited from earlier work.

Turning to `CCCC(=O)OC[C@H](N)C(=O)O` [SerBut, O-butyryl-L-serine], the “inflammatory marker expression” value is reported as “suppressed inflammatory marker expression”.
